Test results from patent publication US20150083146A1, “PERSONAL VAPORIZER LIQUID FOR E[…]-SOLUBLE COMPOUNDS AND RESINS” (Verso PV, LLC, priority 2013, published 2015).
Counter-ions that a name gives are not always drawn.

What was measured:
[1] = Emulsion stability (visual separation test; storage, sunlight, temperature); format: physicochemical; conditions: after mixing with heat and agitation; initial observation
From the text: In some embodiments of the present invention, a stable emulsion containing oil-soluble compounds and/or resins in a liquid base is provided. The stable emulsion may be stored in a container suitable for delivery to a consumer. The stable emulsion may be provided in a vial, cartridge or other container. Preferably the container is air-tight. The stability of the emulsion may be measured or quantified by no visible separation after 30 days.
In this example, a series of liquid compositions were prepared and evaluated for their emulsion stability. Varying compositions were tested that utilized different lipid solubilizers (8 in total). The liquid base in these compositions was propylene glycol. Test samples (liquid compositions including cannabis extract) were subjected to a range of conditions: temperature, sunlight, extended storage, and varied ingredient concentration. Various types of cannabis extract were also tested. For each test sample, observations were noted about the color, viscosity, general visual appearance of each sample, and any changes seen over time.
Materials and Methods: Testing was performed in 20 ml glass scintillation vials. Mixing of the liquid base and lipid solubilizer was done entirely in borosilicate glassware, and ingredients were measured by mass using an AND EJ-610 balance. Samples were heated using a Scilogex MS7-H55O digitally controlled hot plate. Cannabis extract was produced using an Apeks closed-system solvent extractor running instrument grade propane. […]
Formula preparation: Formulas using lipid solubilizers were prepared in three concentrations: 0.1%, 0.5% and 1.0% by mass, in a solvent base of propylene glycol. […] Stock solutions were made of each of the eight lipid solubilizers at each of the three concentrations, producing a total of 24 different formulas at a quantity of approximately 500 ml each. […] After cooling the formula was ready for use. […]
Test Sample preparation: For each sample, the appropriate quantity of cannabis extract and liquid formula were added to a vial. […]

[2] = Viscosity rating of liquid compositions (cannabis extract emulsions in propylene glycol formulas); format: physicochemical; conditions: cannabis extract emulsion in propylene glycol
Protocol: The liquid composition comprising the oil-soluble compounds or resin should have a density and viscosity suitable for use in a personal vaporizer. […] For example, a liquid composition having a […] of about 100 cps, alternatively about 75 cps or less, alternatively about 50 cps or less, alternatively about 42 cps (the viscosity of propylene glycol) or more. The foregoing values can be combined to form a range. Viscosity values are determined at 25° C. using standard equipment for measuring viscosity of liquids.
Test Sample preparation: For each sample, the appropriate quantity of cannabis extract and liquid formula were added to a vial. The vial was placed on a hot plate at 85° C. until the extract melted. The vial was gently shaken to disperse the extract. Each of the formula recipes were tested with five concentrations of extract: 5%, 10%, 20%, 33%, and 50%, by mass. For example: to produce a 10% extract sample we placed 9.00 grams of one of the stock oil emulsifier formulas, and 1.00 grams of one of cannabis extracts in a 20 ml scintillation vial and applied heat. The components remained separate until heat and agitation are applied.
The viscosity of each sample is rated, in which “1” indicates lower viscosity, “2” indicates moderate viscosity, and “3” indicates higher viscosity.

## CC(=O)OCC(COC(C)=O)OC(C)=O [triacetin, Triacetin]
[1]
  formation of a stable emulsion: appeared to perform adequately

## CCCCCCCCCCCC(=O)OCC(O)CO (centres unmarked) [Monolaurin, Glyceryl Monolaurate]
[1]
  formation of a stable emulsion: effective and flavorless emulsifier

## CCOC(=O)CC(O)(CC(=O)OCC)C(=O)OCC [triethyl citrate, Triethyl Citrate]
[1]
  formation of a stable emulsion: appeared to perform adequately

## CCCCCCCC(=O)OCC(O)CO (centres unmarked) [MCM C8, Glyceryl Caprylate]
[2]
  viscosity (in words): least viscosity

## Propylene Glycol Monolaurate [PG-12]
[2]
  viscosity (in words): most viscous
